Values of other authors, collected in patent publication US20110015245A1, “BENDAMUSTINE AMPHIPHILIC CATIONIC COMPOSITIONS” (priority 2009, published 2011).
Where a name gives a salt, the structure may show the parent alone.

Conditions: 23° C.

## Cn1c(CCCC(=O)O)nc2cc(N(CCCl)CCCl)ccc21 [bendamustine hydrochloride]
  time stable in saline solution: 9 h
